In patent US20230130066A1, “USE OF CYCLODEXTRINS IN DISEASES AND DISORDERS INVOLVING PHOSPHOLIPID DYSREGULATION” (priority 2017, published 2023):
Several values for one entry are separate records, joined by “and”; a condition that tells them apart may be missing. Identical values can stand only once. Entries after “also recorded” stand apart in the source; their conditions may differ. Like-named read-outs stand apart in the source and are kept apart here. Marks after values point to notes of the source that are not given here.

Experiments:
[1] = randomized n-of-1 dose escalation study: excretion of phospholipids into urine after oral administration; type: in vivo, human; conditions: for Excretion of phospholipids into urine, adj (expected level in healthy subjects subtracted) / Excretion of phospholipids into urine, adj per g dose / Excretion of phospholipids into urine, avg / Excretion of phospholipids into urine, single measurements: within 8 h
Procedure: An randomized n-of-1 dose escalation study was conducted to assess the activity of a clathrate of HP-α-CD and sodium caprate (C-10 fatty acid, capric acid, decanoic acid) in extracting phospholipids from serum into urine.

[2] = randomized blinded n-of-1 PK/PD study: FPLC of morning urine; type: in vivo; conditions: oral intake in the evening
Text: The substances compared were • HP-α-CD, • the HP-α-CD/sodium caprate clathrate • a mixture of the HP-α-CD clathrate with the same amount of sodium caprate clathrate, also known as C-10 fatty acid, capric acid, decanoic acid. • a mixture of the HP-α-CD clathrate with the oily suspension proposed by (Tuvia S, Pelled D, et al. (2014) Pharmaceutical Research 31:2010-21).
Six samples per substance were taken.
The samples were taken in the evening before bed-time and urine samples were taken
Unexpectedly, however, PA (675) and SM (650) are not reduced and neither are lyso-phospholipids (460-550).

BCa = BCa mice: tumor volume by treatment; type: in vivo; conditions: Day*Treatment effect
[3] = cited from earlier work
BBB = conditions: cited from earlier work
[4] = tested on: unesterified cholesterol (UC) storage; conditions: 3-week-old Npc1-/- mice, dorsal neocortex, filipin; cited from earlier work
Caco-2 cells = conditions: Caco-2 cells; cited from earlier work
MCF-7 cells = assay: Wound healing / gap closure migration assay, MCF-7; type: cell-based, human; conditions: extrapolated from the results in FIG. 35
Procedure: Cells were cultured in 24-well culture plates (Cytoselect CBA-120, 0.9 mm wound healing/gap closure migration assay) for 24 h with wound healing insert in place.
Protocol: Warm up the 24-well plate (CBA-120, Cell BioLabs Inc.) with 0.9 mm CytoSelect Wound Healing Inserts at room temperature for 10 minutes. Using sterile forceps, orient the desired number of inserts in the plate wells with their “wound field” aligned in the same direction. Create a cell suspension containing 0.5-1.0×10^6 cells/ml in media containing 10% fetal bovine serum (FBS). Add 500 μL of cell suspension to each well by carefully inserting the pipette tip through the open end at the top of the insert. For optimal cell dispersion, add 250 μL of cell suspension to either side of the open ends at the top of the insert. Incubate cells in a cell culture incubator for 12-24 hours. Carefully remove the insert from the well to begin the wound healing assay. Use sterile forceps to grab and lift the insert slowly from the plate well. Slowly aspirate and discard the media from the wells. Wash wells with media to remove dead cells and debris. Finally, add media to wells to keep cells hydrated. Repeat wash if wells still have debris or unattached cells. When washing is complete, add media with FBS and/or compounds to continue cell culture and wound healing process. Agents that inhibit or stimulate cell migration can be added directly to the wells. Incubate cells in a cell culture incubator (2 hours) and then wash cells with PBS and then add fresh media without compounds. Incubate 12-24 hours before wash and fixing. Remove the fixation solution and add 400 μL of Cell Stain Solution to each well. Allow the stain to incubate with the cells for 15 minutes at room temperature. Aspirate and discard the solution. Carefully wash each stained well 3× with deionized water. Discard washes and allow cells to dry at room temperature. Cells that migrated into the wounded area or protruded from the border of the wound were visualized and photographed under an inverted microscope. Determine the surface area of the defined wound area: Total Surface Area=0.9 mm x length. Determine the surface area of the migrated cells into the wound area: Migrated Cell Surface Area=length of cell migration (mm)×2×length. Percent Closure (%)=Migrated Cell Surface Area/Total Surface Area x 100.

rats [5] = conditions: cited from earlier work
[6] = cited from earlier work; remark: listed apart in the source
[7] = cited from earlier work; remark: listed apart in the source
[8] = 12 mM cyclodextrin, 5 μM A2E, blue-light irradiation or 1 d in the dark; cited from earlier work
[9] = tested on: enlarged lysosomes in fibroblasts; conditions: about 6 mM α-CD vs about 8 mM HP-β-CD; cited from earlier work
HaCaT keratinocytes = conditions: v. βCD; cited from earlier work
[10] = parenteral delivery; cited from earlier work
[11] = in vivo; cited from earlier work
human erythrocytes = conditions: cited from earlier work
[12] = animal studies; cited from earlier work
erythrocytes = conditions: cited from earlier work
transferrin endocytosis = conditions: 10 mM; cited from earlier work
NPC cells = conditions: cited from earlier work
[13] = LDL-receptor knockout mice, Western diet (21% milk fat) with 2.1% α-CD; cited from earlier work
rats [14] = conditions: rat, in vivo, iv; cited from earlier work
rats [15] = conditions: cited from earlier work; for nephrosis, 1, 2, 3, 4, or 7 daily doses s.c.: 0.100 g/kg daily
human keratinocytes = conditions: cited from earlier work
APP = conditions: AD mouse cells; cited from earlier work
[16] = even in the relative absence of cholesterol; cited from earlier work
[17] = biological target: BC resistance protein (BCRP/ABCG2) (Homo sapiens, UniProt Q9UNQ0); conditions: cited from earlier work
BC resistance protein (BCRP/ABCG2), sequence (Q9UNQ0 whole entry): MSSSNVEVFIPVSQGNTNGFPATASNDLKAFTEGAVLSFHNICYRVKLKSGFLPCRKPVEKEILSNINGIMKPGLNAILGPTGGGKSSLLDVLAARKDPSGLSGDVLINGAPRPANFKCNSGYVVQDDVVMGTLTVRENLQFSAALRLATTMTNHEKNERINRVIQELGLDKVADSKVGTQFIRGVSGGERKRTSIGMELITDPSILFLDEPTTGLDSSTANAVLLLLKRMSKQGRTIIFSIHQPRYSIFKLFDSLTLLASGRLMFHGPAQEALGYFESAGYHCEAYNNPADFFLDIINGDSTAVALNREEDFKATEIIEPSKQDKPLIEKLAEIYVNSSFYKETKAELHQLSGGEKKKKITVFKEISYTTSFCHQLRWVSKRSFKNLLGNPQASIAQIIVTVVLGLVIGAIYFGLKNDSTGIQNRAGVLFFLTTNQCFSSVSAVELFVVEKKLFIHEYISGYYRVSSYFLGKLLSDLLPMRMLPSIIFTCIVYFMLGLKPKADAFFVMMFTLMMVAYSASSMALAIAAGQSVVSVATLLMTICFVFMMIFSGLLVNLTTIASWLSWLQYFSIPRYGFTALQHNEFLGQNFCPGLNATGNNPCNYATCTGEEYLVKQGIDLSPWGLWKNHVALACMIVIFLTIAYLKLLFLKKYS

[18] = tested on: H7 Lewis lung cancer cell lines; conditions: three H7 Lewis lung cancer cell lines; cited from earlier work
[19] = tested on: MDA-MB-241 and ZR751 BC cells; conditions: cited from earlier work
MCF7 BC cells = conditions: cited from earlier work
Aβ = conditions: rat hippocampal neurons infected with SFV carrying APP; cited from earlier work
[20] = tested on: H7-O Lewis lung cancer cells; conditions: mice implanted with H7-O Lewis lung cancer cells; cited from earlier work
[21] = tested on: primary effusion lymphoma (PEL); conditions: mice; cited from earlier work
BC = conditions: in vivo; cited from earlier work
MDA-MB-231 BC cells = conditions: independently of cholesterol; cited from earlier work
a-syn = biological target: T1, a-syn (Homo sapiens, UniProt P37840); conditions: transfected cells, immunoblot; cited from earlier work
T1 construct: expressed in transfected cells

α-synuclein [22] = biological target: T2, α-synuclein (Homo sapiens, UniProt P37840); design: expressed in transfected cells; host or cells: HeLa cells; conditions: HeLa cells, 20 mM, 1 hr; cited from earlier work
α-synuclein [23] = biological target: T2, α-synuclein; design: from tissue; host or cells: brain of hα-syn transgenic mice; conditions: mice; cited from earlier work

With “2-hydroxypropyl-α-cyclodextrin [HP-α-CD]” the “Excretion of phospholipids into urine, adj (expected level in healthy subjects subtracted)” value ([1]; oral dose 18 g) was 1.05 mM, the “Excretion of phospholipids into urine, adj per g dose” value (“Excretion … per g dose” for short) ([1]; oral dose 18 g) was 0.06 mM/g and the “Excretion of phospholipids into urine, avg” value (“Excretion … avg” for short) ([1]; oral dose 18 g) was 3.87 mM. For the same molecule, the “Excretion of phospholipids into urine, single measurements” value (from here on “Excretion … single measurements”) ([1]; oral dose 18 g) was 3.8 mM and 3.5 mM and 4.3 mM, the “Excretion of phospholipids into urine, adj (expected level in healthy subjects subtracted)” value ([1]; oral dose 22 g) was 2.11 mM and the “Excretion … per g dose” value ([1]; oral dose 22 g) was 0.10 mM/g. For the same molecule, the “Excretion … avg” value ([1]; oral dose 22 g) was 4.93 mM, the “Excretion … single measurements” value ([1]; oral dose 22 g) was 5.2 mM and 4.4 mM and the “Excretion of phospholipids into urine, adj (expected level in healthy subjects subtracted)” value ([1]; oral dose 26 g) was 4.05 mM. The “Excretion … per g dose” value ([1]; oral dose 26 g) was 0.16 mM/g, the “Excretion … avg” value ([1]; oral dose 26 g) was 6.87 mM and the “Excretion … single measurements” value ([1]; oral dose 26 g) was 7.2 mM and 6.3 mM and 7.1 mM. The “Excretion of phospholipids into urine, adj (expected level in healthy subjects subtracted)” value ([1]; oral dose 30 g) was 4.65 mM, the “Excretion … per g dose” value ([1]; oral dose 30 g) was 0.15 mM/g and the “Excretion … avg” value ([1]; oral dose 30 g) was 7.47 mM. For the same molecule, the “Excretion … single measurements” value ([1]; oral dose 30 g) was 7.5 mM and 6.8 mM and 8.1 mM, the “Excretion of phospholipids into urine, adj (expected level in healthy subjects subtracted)” value ([1]; oral dose 36 g) was 5.75 mM and the “Excretion … per g dose” value ([1]; oral dose 36 g) was 0.16 mM/g. The “Excretion … avg” value ([1]; oral dose 36 g) was 8.57 mM, the “Excretion … single measurements” value ([1]; oral dose 36 g) was 8.2 mM and 8.8 mM and 8.7 mM and the “Excretion of phospholipids into urine, adj (expected level in healthy subjects subtracted)” value ([1]; oral dose 44 g) was 4.88 mM. The “Excretion … per g dose” value ([1]; oral dose 44 g) was 0.11 mM/g, the “Excretion … avg” value ([1]; oral dose 44 g) was 7.70 mM and the “Excretion … single measurements” value ([1]; oral dose 44 g) was 8.0 mM and 7.6 mM and 7.5 mM. For the same molecule, the side effect observed ([1]; oral, only at the highest (44 g) dose) was “softening of stool”, the “recovery of HP-α-CD from morning urine (resorption)” value [2] was “not excreted” and the “Tumor Volume” value (BCa) was “effective”. For the same molecule, the Solubility in water ([3]; Table 1) was over 500 g/L, the Solubility in water ([3]; Table 3) was ~500^a g/l and the BBB breakdown (BBB) was 2.5 mM. For the same molecule, the “UC storage in brain cells” value [4] was “clearly reduced” and the cytotoxicity (Caco-2 cells) was “less cytotoxic than α-CD”.
In the case of `OC[C@H]1O[C@@H]2O[C@H]3[C@H](O)[C@@H](O)[C@@H](O[C@H]4[C@H](O)[C@@H](O)[C@@H](O[C@H]5[C@H](O)[C@@H](O)[C@@H](O[C@H]6[C@H](O)[C@@H](O)[C@@H](O[C@H]7[C@H](O)[C@@H](O)[C@@H](O[C@H]1[C@H](O)[C@H]2O)O[C@@H]7CO)O[C@@H]6CO)O[C@@H]5CO)O[C@@H]4CO)O[C@@H]3CO` [α-CD, alpha-cyclodextrin], the “dose with the same efficacy in preventing migration of cancer cells as 2000 mg/kg/d bCD” value (MCF-7 cells) is listed as 700 mg/kg/day, the Solubility in water ([3]; Table 3) is listed as 130 to 145 g/L and the “nephrosis, single dose s.c.” value (rats [5]; 0.100 g/kg) is listed as 0.100 no changes. For the same molecule, the “nephrosis, single dose s.c.” value (rats [5]; 1.000 g/kg) was 1.000 changes seen, the “oral absorption in rats” value [6] was 2-3% and the “i.v. toxicity, 1 g daily” value [7] was 1 died. For the same molecule, the BBB breakdown (BBB) was 1 mM, the “toxicity on BBB in vitro” value (BBB) was “more toxic” and the “protection of A2E against oxidation” value [8] was “not”. The reducing lysosomal storage [9] was “more effective”, the “toxicity in HaCaT cells (proliferation, caspase activity, lactose dehydrogenase)” value (HaCaT keratinocytes) was “lower toxicity” and the “excretion into the urine” value [10] was “excreted almost completely in an intact form”. The “tolerance in cyclosporine eye-drops” value [11] was “well tolerated”, the “hemolytic activity / tolerance of human erythrocytes” value (human erythrocytes) was “lower than that of both β-CD and HP-β-CD; also recorded: tolerate α-CD better then β-CD” and the ototoxicity [12] was “did not show ototoxicity”. For the same molecule, the phospholipids released (erythrocytes; 10 mM) was 30%, the extraction of cholesterol (erythrocytes; erythrocytes) was “negligible” and the “reduction of transferrin endocytosis” value (transferrin endocytosis) was 20%. The cholesterol accumulation (NPC cells) was “can reduce cholesterol accumulation”, the “decrease of plasma PLs” value [13] was 17.5% and the “single dose i.v. LD50” value (rats [14]) was 0.788/1.008 * g/kg. For the same molecule, the “nephrosis, 1, 2, 3, 4, or 7 daily doses s.c.” value (rats [15]; listed as α-cyclodextrin) was “not apparent”, the “nephrosis, 1, 2, 3, 4, or 7 daily doses s.c.” value (rats [15]) was 0.100 no nephrosis and the “deaths, daily doses s.c.” value (rats [15]; 1.000 g/kg daily, listed as α-cyclodextrin) was 1 died after 2 days. The “deaths, daily doses s.c.” value (rats [15]; 1.000 g/kg daily) was “one died after 2 days”, the “nephrosis, daily doses s.c.” value (rats [15]; 1.000 g/kg daily) was 1.000 severe and the apoptotic cell death (human keratinocytes) was “not apoptotic”.
For methyl-β-cyclodextrin [MβCD], the “toxicity on BBB in vitro” value (BBB) is given as “similar”, the “protection of A2E against oxidation” value [8] is given as “protect A2E against oxidation” and the “APPsα levels in the medium” value (APP) is given as “increased”. The “APPsβ levels in the medium” value (APP) was “did not change”, the “levels of intracellular APPsβ” value (APP) was “decrease” and the “levels of α secretase cleavage products C83” value (APP) was “increase”. The “LPC or FFA mediated surfactant inhibition” value [16] was “reversed”, the “decrease in activity of BC resistance protein (BCRP/ABCG2)” value [17] was 40% and the invasion activity [18] was “suppressed invasion activity”. For the same molecule, the “spheroid migration and invasion” value [19] was “inhibited”, the endocytosis and migration (MCF7 BC cells) was “inhibited” and the “secretion of Aβ” value (Aβ) was “inhibits secretion”. For the same molecule, the “number of lung metastases” value [20] was “reduced the number of lung metastases”, the “growth of primary effusion lymphoma (PEL)” value [21] was “inhibited growth” and the “efficacy in a mouse model of BC” value (BC) was “effective”. For the same molecule, the “internalization of exosomes containing integrins” value (MDA-MB-231 BC cells) was “inhibited”, the cholesterol accumulation (NPC cells) was “most potent” and the “level of a-syn in the membrane fraction and detergent-insoluble fraction” value (a-syn) was “reduced the level of a-syn”. The “co-location of α-synuclein with the cell membrane” value (α-synuclein [22]) was “dramatically reduced” and the “accumulation of α-synuclein in neuronal cell body and synapses” value (α-synuclein [23]) was “reduced accumulation”.
